According to PubChem BioAssay (NCI):
≈ marks a conversion by molar mass, not a printed value.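 1) Cells in 96-well plates. 2) Compound, 48 h, 5 concentrations. 3) Linear interpolation between surrounding doses. 4) Unreached endpoint = highest concentration. At the GI50, growth is halved. TGI is the concentration that stops growth completely.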

Key:
Assay in all cases: NCI tumour cell line growth inhibition, 48 h
[1] = test system: LOX IMVI melanoma
[2] = test system: K-562 leukemia
[3] = test system: HOP-62 NSCLC
[4] = test system: T-47D breast
[5] = test system: EKVX NSCLC
[6] = test system: A549 NSCLC
[7] = test system: SF-268 CNS
[8] = test system: MCF7 breast
[9] = test system: HOP-92 NSCLC
[10] = test system: SK-MEL-2 melanoma
[11] = test system: MDA-N

SMILES	GI50 [1]	TGI [1]	GI50 [2]	TGI [2]	GI50 [3]	TGI [3]	GI50 [4]	TGI [4]	GI50 [5]	TGI [5]	GI50 [6]	TGI [6]	GI50 [7]	TGI [7]	GI50 [8]	TGI [8]	TGI [9]	TGI [10]	TGI [11]
O=C1NN(C2=NNC3(C(=O)N2)c2ccccc2-c2ccccc23)C(c2ccccc2)=N/C1=C/c1ccc(Cl)cc1	56.1 µg/mL (≈ 103 µM)	> 150 µg/mL	50.4 µg/mL (≈ 92.6 µM)	> 150 µg/mL	49.1 µg/mL (≈ 90 µM)	> 150 µg/mL	13.4 µg/mL (≈ 24.6 µM)	149 µg/mL	38.7 µg/mL (≈ 71 µM)	108 µg/mL	60.2 µg/mL (≈ 111 µM)	> 150 µg/mL	61 µg/mL (≈ 112 µM)	> 150 µg/mL	35.8 µg/mL (≈ 65.7 µM)	144 µg/mL			
CCOC(=O)c1csc(NC(=O)C(C)N2CCCC2)n1 (configuration not stated)		> 100 µM		> 100 µM		> 100 µM		> 100 µM				> 100 µM				> 100 µM	> 100 µM	> 100 µM	> 100 µM
COC(=O)C(Cc1cn(C(C)n2cc(CC(NC(C)=O)C(=O)OC)c3ccccc32)c2ccccc12)NC(C)=O (configuration not stated)						> 100 µM				> 100 µM		> 100 µM		> 100 µM			> 100 µM	> 100 µM	> 100 µM
